# Paper PMC7497403, “Development of Potent PfCLK3 Inhibitors Based on TCMDC-135051 as a New Class of Antimalarials” (Journal of Medicinal Chemistry, 2020)
# Assays:
# [1] = molecular target: EPH-B3 (Homo sapiens, UniProt P54753); assay: Kinase screen; type: biochemical
# Excerpt: (§1) With verapamil used as a positive control.
# (§2) V. Distribution coefficient (LogD7.4)
# [2] = molecular target: HER4 (Homo sapiens, UniProt Q15303); assay: Kinase screen; type: biochemical
# Excerpt: as §1, §2
# [3] = molecular target: EIF2AK3 (Homo sapiens, UniProt Q9NZJ5); assay: Kinase screen; type: biochemical
# Excerpt: as §1, §2
# [4] = molecular target: PKBa (Homo sapiens, UniProt P31749); assay: Kinase screen; type: biochemical
# Excerpt: as §1, §2
# [5] = molecular target: MKK2 (Homo sapiens, UniProt P36507); assay: Kinase screen; type: biochemical
# Excerpt: as §1, §2
# [6] = molecular target: GCK (Homo sapiens, UniProt Q12851); assay: Kinase screen; type: biochemical
# Excerpt: as §1, §2
# [7] = molecular target: WNK1 (Homo sapiens, UniProt Q9H4A3); assay: Kinase screen; type: biochemical
# Excerpt: as §1, §2
# [8] = molecular target: MST4 (Homo sapiens, UniProt Q9P289); assay: Kinase screen; type: biochemical
# Excerpt: as §1, §2
# [9] = molecular target: RSK1 (Homo sapiens, UniProt Q15418); assay: Kinase screen; type: biochemical
# Excerpt: as §1, §2
# [10] = molecular target: PRAK (Homo sapiens, UniProt Q8IW41); assay: Kinase screen; type: biochemical
# Excerpt: as §1, §2
# [11] = molecular target: MST2 (Homo sapiens, UniProt Q13188); assay: Kinase screen; type: biochemical
# Excerpt: as §1, §2
# [12] = molecular target: MNK1 (Homo sapiens, UniProt Q9BUB5); assay: Kinase screen; type: biochemical
# Excerpt: as §1, §2
# [13] = molecular target: MKK6 (Homo sapiens, UniProt P52564); assay: Kinase screen; type: biochemical
# Excerpt: as §1, §2
# [14] = molecular target: SRPK1 (Homo sapiens, UniProt Q96SB4); assay: Kinase screen; type: biochemical
# Excerpt: as §1, §2
# [15] = molecular target: TLK1 (Homo sapiens, UniProt Q9UKI8); assay: Kinase screen; type: biochemical
# Excerpt: as §1, §2
# [16] = molecular target: p38d MAPK (Homo sapiens, UniProt O15264); assay: Kinase screen; type: biochemical
# Excerpt: as §1, §2
# [17] = molecular target: IR (Homo sapiens, UniProt P06213); assay: Kinase screen; type: biochemical
# Excerpt: as §1, §2
# [18] = molecular target: BTK (Homo sapiens, UniProt Q06187); assay: Kinase screen; type: biochemical
# Excerpt: as §1, §2
# [19] = molecular target: IKKe (Homo sapiens, UniProt Q14164); assay: Kinase screen; type: biochemical
# Excerpt: as §1, §2
# [20] = molecular target: MST3 (Homo sapiens, UniProt Q9Y6E0); assay: Kinase screen; type: biochemical
# Excerpt: as §1, §2
# [21] = molecular target: CHK1 (Homo sapiens, UniProt O14757); assay: Kinase screen; type: biochemical
# Excerpt: as §1, §2
# [22] = molecular target: IRAK1 (Homo sapiens, UniProt P51617); assay: Kinase screen; type: biochemical
# Excerpt: as §1, §2
# [23] = molecular target: EPH-A4 (Homo sapiens, UniProt P54764); assay: Kinase screen; type: biochemical
# Excerpt: as §1, §2
# [24] = molecular target: EF2K (Homo sapiens, UniProt O00418); assay: Kinase screen; type: biochemical
# Excerpt: as §1, §2
# [25] = molecular target: MPSK1 (Homo sapiens, UniProt O75716); assay: Kinase screen; type: biochemical
# Excerpt: as §1, §2
# [26] = molecular target: p38g MAPK (Homo sapiens, UniProt P53778); assay: Kinase screen; type: biochemical
# Excerpt: as §1, §2
# [27] = molecular target: ERK8 (Homo sapiens, UniProt Q8TD08); assay: Kinase screen; type: biochemical
# Excerpt: as §1, §2
# [28] = molecular target: ULK2 (Homo sapiens, UniProt Q8IYT8); assay: Kinase screen; type: biochemical
# Excerpt: as §1, §2
# [29] = molecular target: TGFBR1 (Homo sapiens, UniProt P36897); assay: Kinase screen; type: biochemical
# Excerpt: as §1, §2
# [30] = molecular target: DAPK1 (Homo sapiens, UniProt P53355); assay: Kinase screen; type: biochemical
# Excerpt: as §1, §2
# [31] = molecular target: TTBK2 (Homo sapiens, UniProt Q6IQ55); assay: Kinase screen; type: biochemical
# Excerpt: as §1, §2
# [32] = molecular target: PAK6 (Homo sapiens, UniProt Q9NQU5); assay: Kinase screen; type: biochemical
# Excerpt: as §1, §2
# [33] = molecular target: PIM2 (Homo sapiens, UniProt Q9P1W9); assay: Kinase screen; type: biochemical
# Excerpt: as §1, §2
# [34] = molecular target: YES1 (Homo sapiens, UniProt P07947); assay: Kinase screen; type: biochemical
# Excerpt: as §1, §2
# [35] = molecular target: CSK (Homo sapiens, UniProt P41240); assay: Kinase screen; type: biochemical
# Excerpt: as §1, §2
# [36] = molecular target: TAK1 (Homo sapiens, UniProt O43318); assay: Kinase screen; type: biochemical
# Excerpt: as §1, §2
# [37] = molecular target: PKCz (Homo sapiens, UniProt Q05513); assay: Kinase screen; type: biochemical
# Excerpt: as §1, §2
# [38] = molecular target: BRSK2 (Homo sapiens, UniProt Q8IWQ3); assay: Kinase screen; type: biochemical
# Excerpt: as §1, §2
# [39] = molecular target: BRSK1 (Homo sapiens, UniProt Q8TDC3); assay: Kinase screen; type: biochemical
# Excerpt: as §1, §2
# [40] = molecular target: IRR (Homo sapiens, UniProt P14616); assay: Kinase screen; type: biochemical
# Excerpt: as §1, §2
# [41] = molecular target: EPH-B1 (Homo sapiens, UniProt P54762); assay: Kinase screen; type: biochemical
# Excerpt: as §1, §2
# [42] = molecular target: JNK1 (Homo sapiens, UniProt P45983); assay: Kinase screen; type: biochemical
# Excerpt: as §1, §2
# [43] = molecular target: PAK5 (Homo sapiens, UniProt Q9P286); assay: Kinase screen; type: biochemical
# Excerpt: as §1, §2
# [44] = test system: P. falciparum clinical field isolates from The Gambia; assay: Parasite reduction rate (PRR) assay with clinical isolates; type: cell-based
# [45] = molecular target: CK1δ (Homo sapiens, UniProt P48730); assay: Kinase screen; type: biochemical
# [46] = Aqueous solubility; type: physicochemical; settings: aqueous medium (not further specified); read-out: Aq. Solubility
# IR, sequence (P06213 28-1382): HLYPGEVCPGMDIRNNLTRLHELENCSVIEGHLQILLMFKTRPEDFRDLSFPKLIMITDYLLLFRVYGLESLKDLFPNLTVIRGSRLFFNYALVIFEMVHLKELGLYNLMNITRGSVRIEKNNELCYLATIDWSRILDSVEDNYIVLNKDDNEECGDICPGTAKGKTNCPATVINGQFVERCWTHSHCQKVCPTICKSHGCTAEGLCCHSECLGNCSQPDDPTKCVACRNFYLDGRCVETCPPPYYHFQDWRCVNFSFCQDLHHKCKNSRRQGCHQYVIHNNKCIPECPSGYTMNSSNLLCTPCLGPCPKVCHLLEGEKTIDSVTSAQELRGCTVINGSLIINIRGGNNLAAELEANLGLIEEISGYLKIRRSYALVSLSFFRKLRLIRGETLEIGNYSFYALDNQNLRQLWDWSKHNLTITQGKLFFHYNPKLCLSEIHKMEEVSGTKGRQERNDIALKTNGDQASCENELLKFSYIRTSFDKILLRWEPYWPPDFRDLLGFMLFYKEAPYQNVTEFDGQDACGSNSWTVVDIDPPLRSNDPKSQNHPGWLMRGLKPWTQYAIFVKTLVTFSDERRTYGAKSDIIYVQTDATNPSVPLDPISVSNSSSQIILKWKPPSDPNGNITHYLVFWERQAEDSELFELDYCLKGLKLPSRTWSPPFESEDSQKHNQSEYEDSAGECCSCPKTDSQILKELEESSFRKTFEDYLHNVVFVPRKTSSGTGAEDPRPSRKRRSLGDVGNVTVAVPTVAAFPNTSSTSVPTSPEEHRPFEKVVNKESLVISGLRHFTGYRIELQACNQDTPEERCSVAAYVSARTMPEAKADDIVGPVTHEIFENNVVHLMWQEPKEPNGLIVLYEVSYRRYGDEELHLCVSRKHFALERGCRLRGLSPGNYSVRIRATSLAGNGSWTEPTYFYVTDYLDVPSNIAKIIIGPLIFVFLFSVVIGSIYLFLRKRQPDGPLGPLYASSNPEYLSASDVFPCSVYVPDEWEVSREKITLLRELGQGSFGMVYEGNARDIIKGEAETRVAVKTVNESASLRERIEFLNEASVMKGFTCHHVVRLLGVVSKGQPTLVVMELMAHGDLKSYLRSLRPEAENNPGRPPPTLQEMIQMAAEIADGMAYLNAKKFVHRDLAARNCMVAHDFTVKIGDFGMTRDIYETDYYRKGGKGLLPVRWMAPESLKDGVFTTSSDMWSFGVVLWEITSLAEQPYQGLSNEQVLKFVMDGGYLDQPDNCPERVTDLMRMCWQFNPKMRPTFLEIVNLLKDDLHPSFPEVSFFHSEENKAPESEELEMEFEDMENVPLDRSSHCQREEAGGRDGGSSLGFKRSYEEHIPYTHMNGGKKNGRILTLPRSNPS
# CK1δ, sequence (P48730 whole entry): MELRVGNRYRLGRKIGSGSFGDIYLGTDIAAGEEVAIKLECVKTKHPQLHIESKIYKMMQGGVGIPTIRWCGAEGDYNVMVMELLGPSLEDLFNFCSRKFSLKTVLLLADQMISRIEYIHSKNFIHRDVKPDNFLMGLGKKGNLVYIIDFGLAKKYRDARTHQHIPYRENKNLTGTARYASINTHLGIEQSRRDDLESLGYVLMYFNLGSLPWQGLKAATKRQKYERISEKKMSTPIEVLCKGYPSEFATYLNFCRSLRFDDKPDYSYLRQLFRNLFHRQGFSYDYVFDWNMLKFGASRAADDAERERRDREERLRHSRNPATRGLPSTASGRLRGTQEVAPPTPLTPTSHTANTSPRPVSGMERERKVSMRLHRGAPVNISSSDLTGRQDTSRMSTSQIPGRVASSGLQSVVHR
# CSK, sequence (P41240 whole entry): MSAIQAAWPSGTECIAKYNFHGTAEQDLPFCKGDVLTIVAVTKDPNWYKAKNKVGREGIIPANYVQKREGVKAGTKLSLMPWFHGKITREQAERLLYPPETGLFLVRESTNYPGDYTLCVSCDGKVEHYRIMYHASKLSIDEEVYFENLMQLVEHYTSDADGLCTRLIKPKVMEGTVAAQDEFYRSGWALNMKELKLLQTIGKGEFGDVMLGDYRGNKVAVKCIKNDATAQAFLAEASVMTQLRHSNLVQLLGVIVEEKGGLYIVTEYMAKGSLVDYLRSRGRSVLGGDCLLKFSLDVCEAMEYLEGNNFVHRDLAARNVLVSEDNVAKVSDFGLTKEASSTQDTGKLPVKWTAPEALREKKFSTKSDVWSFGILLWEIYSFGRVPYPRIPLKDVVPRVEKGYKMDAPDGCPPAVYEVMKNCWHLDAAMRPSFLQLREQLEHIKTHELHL
# MKK2, sequence (P36507 whole entry): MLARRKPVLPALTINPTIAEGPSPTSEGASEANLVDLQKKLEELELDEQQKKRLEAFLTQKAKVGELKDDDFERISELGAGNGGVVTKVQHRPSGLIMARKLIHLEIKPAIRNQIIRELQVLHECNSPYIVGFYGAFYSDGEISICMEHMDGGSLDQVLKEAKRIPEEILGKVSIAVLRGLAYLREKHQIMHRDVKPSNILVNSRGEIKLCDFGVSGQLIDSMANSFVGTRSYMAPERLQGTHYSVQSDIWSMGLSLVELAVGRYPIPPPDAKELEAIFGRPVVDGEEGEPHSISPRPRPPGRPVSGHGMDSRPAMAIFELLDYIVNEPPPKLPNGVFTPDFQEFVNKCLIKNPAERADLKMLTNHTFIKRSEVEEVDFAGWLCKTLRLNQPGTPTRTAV
# DAPK1, sequence (P53355 whole entry): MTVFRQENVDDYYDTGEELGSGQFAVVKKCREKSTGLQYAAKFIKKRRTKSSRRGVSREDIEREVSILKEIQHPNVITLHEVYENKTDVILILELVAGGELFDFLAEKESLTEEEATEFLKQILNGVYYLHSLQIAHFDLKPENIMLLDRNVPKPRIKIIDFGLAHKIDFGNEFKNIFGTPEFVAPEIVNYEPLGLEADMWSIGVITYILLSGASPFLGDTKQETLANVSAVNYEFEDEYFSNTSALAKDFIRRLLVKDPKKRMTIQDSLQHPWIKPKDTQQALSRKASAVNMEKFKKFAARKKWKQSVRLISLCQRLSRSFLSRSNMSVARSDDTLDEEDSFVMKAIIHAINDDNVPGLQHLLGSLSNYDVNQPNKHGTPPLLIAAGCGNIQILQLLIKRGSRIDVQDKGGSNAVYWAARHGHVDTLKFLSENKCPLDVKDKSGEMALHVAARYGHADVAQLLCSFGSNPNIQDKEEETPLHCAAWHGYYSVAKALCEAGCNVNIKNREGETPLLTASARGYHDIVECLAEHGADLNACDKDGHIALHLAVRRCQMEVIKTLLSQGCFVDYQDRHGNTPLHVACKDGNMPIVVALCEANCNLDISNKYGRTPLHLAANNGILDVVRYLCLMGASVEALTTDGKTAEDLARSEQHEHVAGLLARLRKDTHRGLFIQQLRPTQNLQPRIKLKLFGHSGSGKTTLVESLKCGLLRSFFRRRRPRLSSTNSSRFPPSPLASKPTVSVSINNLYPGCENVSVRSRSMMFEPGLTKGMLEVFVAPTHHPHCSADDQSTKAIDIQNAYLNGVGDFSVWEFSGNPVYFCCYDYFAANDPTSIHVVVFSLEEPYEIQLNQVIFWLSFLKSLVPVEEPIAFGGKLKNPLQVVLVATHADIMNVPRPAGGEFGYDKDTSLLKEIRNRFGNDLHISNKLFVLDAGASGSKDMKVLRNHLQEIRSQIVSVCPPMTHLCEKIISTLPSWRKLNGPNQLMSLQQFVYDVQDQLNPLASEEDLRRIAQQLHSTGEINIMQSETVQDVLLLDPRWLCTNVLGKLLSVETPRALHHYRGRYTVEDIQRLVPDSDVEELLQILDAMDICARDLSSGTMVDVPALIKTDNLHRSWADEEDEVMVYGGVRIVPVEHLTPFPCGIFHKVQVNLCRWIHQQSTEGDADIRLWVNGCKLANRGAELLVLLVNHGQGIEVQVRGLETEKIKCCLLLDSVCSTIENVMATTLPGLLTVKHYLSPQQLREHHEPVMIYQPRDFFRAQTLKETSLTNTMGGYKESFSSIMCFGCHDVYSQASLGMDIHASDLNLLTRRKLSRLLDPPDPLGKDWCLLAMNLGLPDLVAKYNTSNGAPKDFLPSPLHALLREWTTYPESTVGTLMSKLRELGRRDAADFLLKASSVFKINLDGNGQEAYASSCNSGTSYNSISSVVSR
# EPH-A4, sequence (P54764 20-986): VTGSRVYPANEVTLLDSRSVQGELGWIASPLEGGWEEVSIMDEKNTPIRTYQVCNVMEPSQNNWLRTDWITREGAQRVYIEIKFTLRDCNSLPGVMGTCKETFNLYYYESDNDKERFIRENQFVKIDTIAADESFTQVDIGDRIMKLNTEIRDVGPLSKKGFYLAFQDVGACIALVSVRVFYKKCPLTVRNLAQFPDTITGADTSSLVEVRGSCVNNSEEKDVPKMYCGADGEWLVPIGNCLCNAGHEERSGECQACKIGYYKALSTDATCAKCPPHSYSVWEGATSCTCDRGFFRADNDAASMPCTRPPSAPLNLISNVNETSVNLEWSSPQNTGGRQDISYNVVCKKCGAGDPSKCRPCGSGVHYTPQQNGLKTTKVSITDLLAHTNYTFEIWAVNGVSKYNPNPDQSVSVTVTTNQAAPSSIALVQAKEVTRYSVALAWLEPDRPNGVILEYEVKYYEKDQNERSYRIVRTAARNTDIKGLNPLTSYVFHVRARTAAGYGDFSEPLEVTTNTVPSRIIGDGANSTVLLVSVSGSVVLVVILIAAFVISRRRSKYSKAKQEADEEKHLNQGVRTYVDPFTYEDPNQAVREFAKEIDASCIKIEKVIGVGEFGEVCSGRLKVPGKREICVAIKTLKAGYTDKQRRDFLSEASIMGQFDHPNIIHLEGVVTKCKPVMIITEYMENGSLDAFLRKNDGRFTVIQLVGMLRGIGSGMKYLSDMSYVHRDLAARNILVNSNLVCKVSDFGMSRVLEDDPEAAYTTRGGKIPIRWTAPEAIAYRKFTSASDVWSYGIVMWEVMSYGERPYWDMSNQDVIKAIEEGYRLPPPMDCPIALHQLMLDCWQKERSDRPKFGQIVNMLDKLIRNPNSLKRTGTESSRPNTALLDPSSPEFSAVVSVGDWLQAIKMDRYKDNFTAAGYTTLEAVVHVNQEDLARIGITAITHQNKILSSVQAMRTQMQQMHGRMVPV
smiles,measurement,setting,value
"CCN(CC)Cc1ccc(OC)c(-c2cc3c(-c4ccc(C(=O)O)c(C(C)C)c4)ccnc3[nH]2)c1 [analogue 1, 4-(2-(5-((Diethylamino)methyl)-2-methoxyphenyl)-1H-pyrrolo[2,3-b]pyridin-4-yl)-2-isopropylbenzoic Acid]",activity at 1 µM,[1],108%
same,activity at 1 µM,[2],112%
same,activity at 1 µM,[3],100%
same,activity at 1 µM,[4],115%
same,activity at 1 µM,[5],17%
same,activity at 1 µM,[6],31%
same,activity at 1 µM,[7],105%
same,activity at 1 µM,[8],59%
same,activity at 1 µM,[9],106%
same,activity at 1 µM,[10],88%
same,activity at 1 µM,[11],68%
same,activity at 1 µM,[12],0%
same,activity at 1 µM,[13],100%
same,activity at 1 µM,[14],92%
same,activity at 1 µM,[15],106%
same,activity at 1 µM,[16],117%
same,activity at 1 µM,[17],77%
same,activity at 1 µM,[18],119%
same,activity at 1 µM,[19],52%
same,activity at 1 µM,[20],62%
same,activity at 1 µM,[21],78%
same,activity at 1 µM,[22],6%
same,activity at 1 µM,[23],83%
same,activity at 1 µM,[24],113%
same,activity at 1 µM,[25],104%
same,activity at 1 µM,[26],105%
same,activity at 1 µM,[27],55%
same,activity at 1 µM,[28],96%
same,activity at 1 µM,[29],6%
same,activity at 1 µM,[30],105%
same,activity at 1 µM,[31],114%
same,activity at 1 µM,[32],92%
same,activity at 1 µM,[33],93%
same,activity at 1 µM,[34],67%
same,activity at 1 µM,[35],74%
same,activity at 1 µM,[36],25%
same,activity at 1 µM,[37],121%
same,activity at 1 µM,[38],74%
same,activity at 1 µM,[39],66%
same,activity at 1 µM,[40],101%
same,activity at 1 µM,[41],124%
same,activity at 1 µM,[42],85%
same,activity at 1 µM,[43],75%
same,susceptibility of clinical isolates (PRR),[44],total susceptibility
same,activity at 1 µM,[45],91%
same,solubility,[46],8 µg/mL
